Test results as given in BindingDB's records for doi:10.3109/14756366.2012.680062 (Shandong University, 2013).

What follows are compounds tested against T1, Aminopeptidase N (Sus scrofa, UniProt P15145) (assay: In Vitro APN Inhibition Assay). Details: pH 7.2.
T1 sequence (P15145 whole entry): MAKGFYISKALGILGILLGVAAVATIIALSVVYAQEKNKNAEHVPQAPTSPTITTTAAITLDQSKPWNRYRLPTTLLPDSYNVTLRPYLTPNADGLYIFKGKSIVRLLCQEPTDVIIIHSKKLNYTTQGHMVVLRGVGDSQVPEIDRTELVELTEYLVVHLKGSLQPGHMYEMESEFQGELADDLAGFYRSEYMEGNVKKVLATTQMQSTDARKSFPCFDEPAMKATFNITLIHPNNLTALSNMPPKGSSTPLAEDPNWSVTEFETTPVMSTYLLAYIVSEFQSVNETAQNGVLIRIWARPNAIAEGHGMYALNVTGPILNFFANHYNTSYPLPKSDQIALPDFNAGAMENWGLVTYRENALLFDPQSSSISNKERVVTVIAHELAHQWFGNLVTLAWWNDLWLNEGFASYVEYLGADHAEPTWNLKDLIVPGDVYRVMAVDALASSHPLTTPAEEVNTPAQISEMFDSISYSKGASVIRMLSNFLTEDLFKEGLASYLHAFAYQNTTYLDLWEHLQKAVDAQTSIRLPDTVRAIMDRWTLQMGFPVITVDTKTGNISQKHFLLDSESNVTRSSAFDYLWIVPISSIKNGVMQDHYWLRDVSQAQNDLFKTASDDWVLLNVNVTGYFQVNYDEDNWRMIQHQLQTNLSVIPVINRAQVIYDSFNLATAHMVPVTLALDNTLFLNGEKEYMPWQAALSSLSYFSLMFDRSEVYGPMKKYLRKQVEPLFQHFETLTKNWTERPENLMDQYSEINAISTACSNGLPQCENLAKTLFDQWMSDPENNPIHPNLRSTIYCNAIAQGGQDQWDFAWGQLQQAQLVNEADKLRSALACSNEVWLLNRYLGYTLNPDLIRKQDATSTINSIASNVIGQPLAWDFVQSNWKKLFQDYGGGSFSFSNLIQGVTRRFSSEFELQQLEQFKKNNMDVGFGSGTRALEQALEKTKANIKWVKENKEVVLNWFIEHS
`CCC(C)[C@H](NC(=O)[C@H](Cc1ccccc1)NC(=O)[C@@H](O)CN)C(=O)O` (stereo partly drawn) [2-[2-(3-amino-2-hydroxypropanamido)-3-phenylpropanamido]-3-methylpentanoic acid (16a)] was tested, and the IC50 was 30.4 µM. Compound `CC(C)C[C@H](NC(=O)[C@@H](O)CN)C(=O)N[C@@H](Cc1ccc(O)cc1)C(=O)O` [L-isoserine-L-eucyl-L-tyrosinase (16m)] has an IC50 of 17.5 µM. `CC(C)C[C@H](NC(=O)[C@@H](O)CN)C(=O)N[C@H](C(=O)O)C(C)C` [L-isoserine-L-leucyl-L-valine (16i)] was tested, and the IC50 was 5.16 µM. Work on `NC[C@H](O)C(=O)N[C@@H](Cc1ccccc1)C(=O)N[C@@H](Cc1ccccc1)C(=O)O` [L-isoserine-L-phenylalanine-L-phenylalanine (16n)] yielded an IC50 of 6.5 µM. For `CC(C)[C@H](NC(=O)[C@H](Cc1ccccc1)NC(=O)[C@@H](O)CN)C(=O)O` [L-isoserine-L-phenylalanine-L-valine (16b)], the IC50 was 94 µM. Compound `CC(C)C[C@H](NC(=O)[C@@H](NC(=O)[C@@H](O)CN)c1ccccc1)C(=O)O` [L-isoserine-L-phenylglycine-L-leucyl (16k)] has an IC50 of 11.6 µM. With `NC[C@H](O)C(=O)N[C@H](C(=O)N[C@@H](Cc1ccccc1)C(=O)O)c1ccccc1` [L-isoserine-L-phenylglycine-L-phenylalanine (16g)] the IC50 was 5.8 µM. Work on `CC(C)[C@H](NC(=O)[C@@H](NC(=O)[C@@H](O)CN)c1ccccc1)C(=O)O` [L-isoserine-L-phenylglycine-L-valine (16c)] yielded an IC50 of 51.5 µM. Compound `CC(C)C[C@H](NC(=O)[C@H](Cc1ccc(O)cc1)NC(=O)[C@@H](O)CN)C(=O)O` [L-isoserine-L-tyrosinase-L-leucyl (16l)] has an IC50 of 2.51 µM. For `CC(C)[C@H](NC(=O)[C@H](Cc1ccc(O)cc1)NC(=O)[C@@H](O)CN)C(=O)O` [L-isoserine-L-tyrosinase-L-valine (16e)], the IC50 was 11.5 µM. `CC(C)C[C@H](NC(=O)[C@@H](NC(=O)[C@@H](O)CN)C(C)C)C(=O)O` [L-isoserine-L-valine-L-leucyl (16h)] gave an IC50 of 6.5 µM. With `CC(C)[C@H](NC(=O)[C@@H](O)CN)C(=O)N[C@@H](Cc1ccccc1)C(=O)O` [L-isoserine-L-valine-L-phenylalanine (16d)] the IC50 was 30.2 µM. `CC(C)[C@H](NC(=O)[C@@H](NC(=O)[C@@H](O)CN)C(C)C)C(=O)O` [L-isoserine-L-valine-L-valine (16f)] was tested, and the IC50 was 13.6 µM.
